The values that follow come from PubChem BioAssay (NCI).

Structures are written as SMILES.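 Following 48 hours of exposure in 96-well plates, responses at five concentrations were used to interpolate endpoints linearly. At the TGI there is no net growth.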

For one experiment, the system named is HL-60(TB) leukemia. Put plainly: NCI anticancer screen, dose series, 48 h.
`CC1(C)OCN(c2ccc(N3CCOCC3)cc2)Cn2c1nc1ccccc12` gave a TGI of 72.9 µM.
Molecule `CN(C)/C=C/C(=CC=[N+](C)C)/C=C/N(C)C` returned a TGI greater than 100 µM.
In turn, `N#C[S-].[La+3].c1cnc2c(c1)ccc1cccnc12.c1cnc2c(c1)ccc1cccnc12.c1cnc2c(c1)ccc1cccnc12` gave a TGI of 2.47 µM.
Take `C/C(=N\NS(=O)(=O)c1ccc(C)cc1)c1ccccn1`: the TGI came out at 73.3 µM.
For the molecule `Cc1cc(C)c2c(=O)cc(-c3cccc4ccccc34)[nH]c2n1`, the TGI worked out at 0.734 µM.
`O=S(Cc1ccccc1)c1nc2ccccc2nc1-c1cccs1` (stereo not drawn) came in with a TGI greater than 100 µM.
`CCN1C[C@]2(C)CC[C@H](O)C34C1C(C[C@@H]32)[C@@]1(O)CC[C@H]2C[C@@H]4[C@@H]1[C@H]2O` yielded a TGI greater than 100 µM.
Regarding `CCC(CC)NC1=C(NC(C)=O)C(=O)c2ccccc2C1=O`, the TGI is greater than 50 µM.
Molecule `O=C(NN1C(=O)C(Cl)C1c1ccc(Cl)cc1)c1c(Cl)c(Cl)c(Cl)c(Cl)c1-c1nc2ccccc2[nH]1` (stereo not drawn) had a TGI of 59.6 µM.
The molecule `CC1(c2cccc(C3CC4(CCC3=O)OCCCCO4)c2)OCCO1` (stereo not drawn) had a TGI greater than 100 µM.

The next experiment concerns EKVX NSCLC. Put plainly: NCI anticancer screen, dose series, 48 h.
In turn, `CC1(C)OCN(c2ccc(N3CCOCC3)cc2)Cn2c1nc1ccccc12` registered a TGI greater than 100 µM.
Take `N#C[S-].[La+3].c1cnc2c(c1)ccc1cccnc12.c1cnc2c(c1)ccc1cccnc12.c1cnc2c(c1)ccc1cccnc12`: the TGI turned out to be 15.5 µM.
`CC1(C)C2CCC1(C)C(N/C(Sc1ccccc1)=C(/C(Cl)=C(Cl)Cl)[N+](=O)[O-])C2` (stereo not drawn) returned a TGI of 57.8 µM.
`COc1cc2c(cc1O)c(O)cc1c3cc(OC)c(OC)cc3c[n+](C)c21` registered a TGI greater than 100 µM.
Take `C/C(=N\NS(=O)(=O)c1ccc(C)cc1)c1ccccn1`: the TGI was greater than 100 µM.
`Cc1cc(C)c2c(=O)cc(-c3cccc4ccccc34)[nH]c2n1` had a TGI greater than 100 µM.
As to `O=S(Cc1ccccc1)c1nc2ccccc2nc1-c1cccs1` (stereo not drawn), the TGI was 60.6 µM.
On to `C=C(C)C1CCC(C(=O)O)CC1` (stereo not drawn), for which the TGI is greater than 100 µM.
With `C=CC[C@]1(/C=N/O)CN(S(=O)(=O)CC[Si](C)(C)C)C[C@H]2CC=CC[C@H]21`, the TGI was 58.5 µM.
Regarding `O=C1NC(=S)N/C1=C\c1cccs1`, the TGI is greater than 100 µM.
In the case of `CC12C=CC(C)(C3C(=O)C4C(C(=O)C31)C1(C)C=CC4(C)S1=O)S2=O` (stereo not drawn), the TGI is greater than 100 µM.
The molecule `CCC(CC)NC1=C(NC(C)=O)C(=O)c2ccccc2C1=O` had a TGI greater than 50 µM.
On to `O=C(NN1C(=O)C(Cl)C1c1ccc(Cl)cc1)c1c(Cl)c(Cl)c(Cl)c(Cl)c1-c1nc2ccccc2[nH]1` (stereo not drawn), for which the TGI amounted to 88.7 µM.

The test system of the next experiment is UACC-257 melanoma. Put plainly: NCI anticancer screen, dose series, 48 h.
Turning to `CC1(C)OCN(c2ccc(N3CCOCC3)cc2)Cn2c1nc1ccccc12`, the TGI was greater than 100 µM.
Still for that read-out and setting: then `CN(C)/C=C/C(=CC=[N+](C)C)/C=C/N(C)C`, with greater than 100 µM; and `N#C[S-].[La+3].c1cnc2c(c1)ccc1cccnc12.c1cnc2c(c1)ccc1cccnc12.c1cnc2c(c1)ccc1cccnc12`, with 20.2 µM.
In turn, `CC1(C)C2CCC1(C)C(N/C(Sc1ccccc1)=C(/C(Cl)=C(Cl)Cl)[N+](=O)[O-])C2` (stereo not drawn) yielded a TGI of 27.4 µM.
On the same count and under the same terms, with `COc1cc2c(cc1O)c(O)cc1c3cc(OC)c(OC)cc3c[n+](C)c21` the figure was greater than 100 µM; with `C/C(=N\NS(=O)(=O)c1ccc(C)cc1)c1ccccn1`, greater than 100 µM.
As for `O=S(Cc1ccccc1)c1nc2ccccc2nc1-c1cccs1` (stereo not drawn), the TGI was determined as 26.5 µM.
The molecule `C=C(C)C1CCC(C(=O)O)CC1` (stereo not drawn) showed a TGI greater than 100 µM.
Regarding `C=CC[C@]1(/C=N/O)CN(S(=O)(=O)CC[Si](C)(C)C)C[C@H]2CC=CC[C@H]21`, the TGI stood at 60.6 µM.
As for `CCN1C[C@]2(C)CC[C@H](O)C34C1C(C[C@@H]32)[C@@]1(O)CC[C@H]2C[C@@H]4[C@@H]1[C@H]2O`, the TGI was greater than 100 µM.
Molecule `CC12C=CC(C)(C3C(=O)C4C(C(=O)C31)C1(C)C=CC4(C)S1=O)S2=O` (stereo not drawn) yielded a TGI greater than 100 µM.
For the molecule `CCC(CC)NC1=C(NC(C)=O)C(=O)c2ccccc2C1=O`, the TGI is greater than 50 µM.
In turn, `O=C(NN1C(=O)C(Cl)C1c1ccc(Cl)cc1)c1c(Cl)c(Cl)c(Cl)c(Cl)c1-c1nc2ccccc2[nH]1` (stereo not drawn) came in with a TGI greater than 100 µM.
The molecule `CC1(c2cccc(C3CC4(CCC3=O)OCCCCO4)c2)OCCO1` (stereo not drawn) registered a TGI greater than 100 µM.

For a further experiment, the system named is OVCAR-8 ovarian. Put plainly: NCI anticancer screen, dose series, 48 h.
Molecule `CC1(C)OCN(c2ccc(N3CCOCC3)cc2)Cn2c1nc1ccccc12` registered a TGI greater than 100 µM.
The molecule `CN(C)/C=C/C(=CC=[N+](C)C)/C=C/N(C)C` showed a TGI greater than 100 µM.
Regarding `N#C[S-].[La+3].c1cnc2c(c1)ccc1cccnc12.c1cnc2c(c1)ccc1cccnc12.c1cnc2c(c1)ccc1cccnc12`, the TGI was 11.5 µM.
`CC1(C)C2CCC1(C)C(N/C(Sc1ccccc1)=C(/C(Cl)=C(Cl)Cl)[N+](=O)[O-])C2` (stereo not drawn): the TGI turned out to be 27.3 µM.
Same read-out and setting: then `COc1cc2c(cc1O)c(O)cc1c3cc(OC)c(OC)cc3c[n+](C)c21`, with greater than 79 µM; and `C/C(=N\NS(=O)(=O)c1ccc(C)cc1)c1ccccn1`, with greater than 100 µM.
In the case of `Cc1cc(C)c2c(=O)cc(-c3cccc4ccccc34)[nH]c2n1`, the TGI was 7.38 µM.
On the same count and under the same terms, then `O=S(Cc1ccccc1)c1nc2ccccc2nc1-c1cccs1` (stereo not drawn), with 38.8 µM; and `C=C(C)C1CCC(C(=O)O)CC1` (stereo not drawn), with greater than 100 µM; and `C=CC[C@]1(/C=N/O)CN(S(=O)(=O)CC[Si](C)(C)C)C[C@H]2CC=CC[C@H]21`, with 67.3 µM.
In turn, `O=C1NC(=S)N/C1=C\c1cccs1` displayed a TGI greater than 100 µM.
Regarding `CCN1C[C@]2(C)CC[C@H](O)C34C1C(C[C@@H]32)[C@@]1(O)CC[C@H]2C[C@@H]4[C@@H]1[C@H]2O`, the TGI is greater than 100 µM.
With `CC12C=CC(C)(C3C(=O)C4C(C(=O)C31)C1(C)C=CC4(C)S1=O)S2=O` (stereo not drawn), the TGI is greater than 100 µM.
The molecule `CCC(CC)NC1=C(NC(C)=O)C(=O)c2ccccc2C1=O` had a TGI greater than 50 µM.
Same read-out and setting: with `O=C(NN1C(=O)C(Cl)C1c1ccc(Cl)cc1)c1c(Cl)c(Cl)c(Cl)c(Cl)c1-c1nc2ccccc2[nH]1` (stereo not drawn) the figure was 43.7 µM; with `CC1(c2cccc(C3CC4(CCC3=O)OCCCCO4)c2)OCCO1` (stereo not drawn), greater than 100 µM.
